Laboratory results as given in patent publication US20080200475A1 (Pfizer Inc., priority 2005, published 2008).
Values joined by “and” are separate entries in the source; they are usually repeats but may differ in a detail not shown here. Equal entries are not always repeated.

Target: T1, Human P2Y12 (Homo sapiens, UniProt Q9H244)
T1 construct: expressed in transfected cells; host or cells: HEK cells (membrane preparation)
Assay: [^33P]-2MeS-ADP Binding to Recombinant Human P2Y12 Membranes (Assay 3)
Settings: for IC50 / Ki: membranes of HEK cells transfected with P2Y12, competition with ^33P 2MeS-ADP, multiple lines = multiple runs; for inhibition at 1 µM: highest concentration tested 1 μM
Procedure: 3. Human P2Y12 Recombinant Cell Membrane Binding Assay with ^33P 2MeS-ADP.
The ability of a test compound to bind to the P2Y12 receptor was evaluated in a recombinant cell membrane binding assay. In this competitive binding assay, the test compound competed against a radiolabelled agonist for binding to the P2Y12 receptor, expressed on the cell membrane. Inhibition of binding of the labeled material was measured and correlated to the amount and potency of the test compound. Data from this assay are presented in Table F. This binding assay is a modification of the procedure in Takasaki, J. et. al, Mol. Pharmacol., 2001, Vol. 60, pg. 432.
HEK cells were transfected with the pDONR201P2Y12 vector and cultured in MEM with GlutaMAX I, Earle's salts, 25 mM HEPES (Gibco #42360-032) containing 10% dialyzed FBS (Gibco #26400-044), 100 μM nonessential amino acids (Gibco #11140-050), 1 mM sodium pyruvate (Gibco #11360-070), 0.05% geneticin (Gibco #10131-027), 3 μg/mL blasticidin (Fluka brand from Sigma #15205), and 0.5 μg/mL puromycin (Sigma #P-8833).
Confluent cells were washed once with cold DPBS (Gibco #14190-136). Fresh DPBS was added and the cells were scraped and centrifuged at 500×g for 5 minutes at 4° C. The cell pellets were resuspended in TEE buffer (25 mM Tris, 5 mM EDTA, 5 mM EGTA) containing 1 protease inhibitor cocktail tablet (Roche #1 873 580) per 50 mL (called TEE+Complete) and can be flash frozen at this point.
In one embodiment, frozen cell pellets were used to prepare the membranes. In that embodiment, the frozen cell pellets were thawed on ice. In another embodiment, cell pellets may be used without flash freezing before moving on to the next step.
Cell pellets were resuspended in TEE buffer+Complete and homogenized in a glass dounce for 12 strokes. The cell suspension was centrifuged at 500×g for 5 minutes at 4° C. The supernatant was saved and centrifuged at 20,000×g for 20 minutes at 4° C. This supernatant was discarded and the cell pellet resuspended in TEE buffer+Complete and homogenized in a glass dounce for 12 strokes. This suspension was centrifuged at 20,000×g for 20 minutes at 4° C. and the supernatant discarded. The pellet was resuspended in assay buffer (50 mM Tris, 100 mM NaCl, 1 mM EDTA) containing one protease inhibitor cocktail tablet per 50 mL, and can be flash frozen as 1 mL aliquots at this point.
[…] A 1 mM DMSO intermediate stock was made in a dilution plate and from this the seven dilutions were made to 5× the final concentration in assay buffer containing 0.02% BSA.
To a polypropylene assay plate (Costar #3365) the following were added: a) 30 μL of assay buffer containing one protease inhibitor cocktail tablet per 50 mL; b) 30 μL of 1 nM ^33P 2MeS-ADP made in assay buffer containing 0.02% BSA and 12.5 mg/mL ascorbic acid; 30 μL of cold 1.5 μM 2MeS-ADP for the positive control wells, or assay buffer containing 0.02% BSA and 12.5 mg/mL ascorbic acid for the negative control wells, or 5× drug dilution; and 60 μL of 1 ug/well membranes.
The plates were incubated at room temperature for 1 hour. The reaction was stopped using a cell harvester to transfer the reaction mixture onto GF/B UniFilter plates (Perkin Elmer #6005177), and washed three times with wash buffer (50 mM Tris), filtering between each wash. The filter plates were dried for approximately 20 minutes in an oven at 50° C. Back seals were adhered to the filter plates and 25 uL of Microscint 20 scintillation fluid (Perkin Elmer #6013621) were added. The filter plates were sealed, shaken for 30 minutes, and counted on a Top Count. Data were analyzed using a four-parameter curve fit with a fixed minimum and maximum experimentally defined as the average positive and negative controls on each plate, and with a hill slope equal to one. […]

[1] = highest concentration tested 10 μM

T1 sequence (Q9H244 whole entry): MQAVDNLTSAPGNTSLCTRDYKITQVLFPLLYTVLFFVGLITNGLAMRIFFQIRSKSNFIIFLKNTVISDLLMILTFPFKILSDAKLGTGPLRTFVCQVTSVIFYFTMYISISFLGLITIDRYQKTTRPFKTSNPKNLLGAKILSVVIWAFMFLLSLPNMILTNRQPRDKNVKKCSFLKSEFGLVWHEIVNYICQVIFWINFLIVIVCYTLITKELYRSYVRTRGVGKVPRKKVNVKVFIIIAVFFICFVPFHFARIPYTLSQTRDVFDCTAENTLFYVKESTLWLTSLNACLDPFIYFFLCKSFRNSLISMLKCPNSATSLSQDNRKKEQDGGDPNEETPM

Structure (SMILES): CCOC(=O)CNC(=O)Nc1nc(N2CCN(C(=O)c3ccc(-c4ccccc4)cc3)CC2)c2cc(CC)sc2n1 [Example 15, Ethyl N-[({4-[4-(1,1′-biphenyl-4-ylcarbonyl)piperazin-1-yl]-6-ethylthieno[2,3-d]pyrimidin-2-yl}amino)carbonyl]glycinate]
- inhibition at 10 µM [1]: 94.5%
- IC50: 0.066 µM
- Ki: 0.038 µM

Structure (SMILES): C=C(C)C(=O)OCCNC(=O)Nc1nc(N2CCN(C(=O)c3ccc(-c4ccccc4)cc3)CC2)c2cc(CC)sc2n1 [Example 16, 2-{[({4-[4-(1,1′-Biphenyl-4-ylcarbonyl)piperazin-1-yl]-6-ethylthieno[2,3-d]pyrimidin-2-yl}amino)carbonyl]amino}ethyl 2-methylacrylate]
- inhibition at 10 µM [1]: 80.8%
- IC50: 0.244 µM
- Ki: 0.14 µM

Structure (SMILES): CCOC(=O)CCNC(=O)Nc1nc(N2CCN(C(=O)c3ccc(-c4ccccc4)cc3)CC2)c2cc(CC)sc2n1 [Example 17, ethyl N-[({4-[4-(1,1′-biphenyl-4-ylcarbonyl)piperazin-1-yl]-6-ethylthieno[2,3-d]pyrimidin-2-yl}amino)carbonyl]-beta-alaninate]
- inhibition at 10 µM [1]: 89.9%
- IC50: 0.157 µM
- Ki: 0.09 µM

Structure (SMILES): CCc1cc2c(N3CCN(C(=O)c4ccc(-c5ccccc5)cc4)CC3)nc(NC(=O)NCC(=O)O)nc2s1 [Example 18, N-[({4-[4-(1,1′-Biphenyl-4-ylcarbonyl)piperazin-1-yl]-6-ethylthieno[2,3-d]pyrimidin-2-yl}amino)carbonyl]glycine]
- inhibition at 10 µM [1]: 95.4%
- IC50: 0.0043 µM
- Ki: 0.002 µM

Structure (SMILES): CCc1cc2c(N3CCN(C(=O)c4ccc(-c5ccccc5)cc4)CC3)nc(NC(=O)NCCC(=O)O)nc2s1 [Example 19, N-[({4-[4-(1,1′-Biphenyl-4-ylcarbonyl)piperazin-1-yl]-6-ethylthieno[2,3-d]pyrimidin-2-yl}amino)carbonyl]-beta-alanine]
- inhibition at 10 µM [1]: 88%
- IC50: 0.006 µM
- Ki: 0.003 µM

Structure (SMILES): CCc1cc2c(N3CCN(C(=O)c4ccc(-c5ccccc5)cc4)CC3)nc(NC(=O)NCCCO)nc2s1 [Example 20, N-{4-[4-(1,1′-Biphenyl-4-ylcarbonyl)piperazin-1-yl]-6-ethylthieno[2,3-d]pyrimidin-2-yl}-N′-(3-hydroxypropyl)urea]
- inhibition at 10 µM [1]: 89%
- IC50: 0.072 µM
- Ki: 0.047 µM

Structure (SMILES): CCc1cc2c(N3CCN(C(=O)c4ccc(-c5ccccc5)cc4)CC3)nc(NC(=O)COC)nc2s1 [Example 23, N-{4-[4-(Biphenyl-4-carbonyl)piperazin-1-yl]-6-ethylthieno[2,3-d]pyrimidin-2-yl}-2-methoxyacetamide]
- inhibition at 10 µM [1]: 93.2%
- IC50: 0.0624 µM
- Ki: 0.036 µM

Structure (SMILES): CCc1cc2c(N3CCN(C(=O)c4ccc(-c5ccccc5)cc4)CC3)nc(NC(=O)C(C)C)nc2s1 [Example 24]
- inhibition at 10 µM [1]: 90%
- IC50: 0.163 µM
- Ki: 0.089 µM

Structure (SMILES): CCc1cc2c(N3CCN(C(=O)c4ccc(-c5ccccc5)cc4)CC3)nc(NC(C)=O)nc2s1 [Example 25, N-{4-[4-(Biphenyl-4-carbonyl)piperazin-1-yl]-6-ethylthieno[2,3-d]pyrimidin-2-yl}acetamide]
- inhibition at 10 µM [1]: 91%
- IC50: 0.159 µM
- Ki: 0.093 µM

Structure (SMILES): CCc1cc2c(N3CCN(C(=O)c4ccc(-c5ccccc5)cc4)CC3)nc(NC(=O)COCc3ccccc3)nc2s1 [Example 27, 2-Benzyloxy-N-{4-[4-(biphenyl-4-carbonyl)piperazin-1-yl]-6-ethylthieno[2,3-d]pyrimidin-2-yl}acetamide]
- inhibition at 10 µM [1]: 84%
- IC50: 0.204 µM
- Ki: 0.119 µM

Structure (SMILES): CCc1cc2c(N3CCN(C(=O)c4ccc(-c5ccccc5)cc4)CC3)nc(NC(=O)CCNC(=O)OCc3ccccc3)nc2s1 [Example 28, Benzyl(2-{4-[4-(biphenyl-4-carbonyl)piperazin-1-yl]-6-ethylthieno[2,3-d]pyrimidin-2-ylcarbamoyl}ethyl)carbamate]
- inhibition at 10 µM [1]: 92.7%
- IC50: 0.0381 µM
- Ki: 0.021 µM

Structure (SMILES): CCc1cc2c(N3CCN(C(=O)c4ccc(-c5ccccc5)cc4)CC3)nc(NC(=O)c3cccnc3)nc2s1 [Example 29, N-{4-[4-(Biphenyl-4-carbonyl)piperazin-1-yl]-6-ethylthieno[2,3-d]pyrimidin-2-yl}nicotinamide]
- inhibition at 10 µM [1]: 89%
- IC50: 0.078 µM
- Ki: 0.043 µM

Structure (SMILES): CCc1cc2c(N3CCN(C(=O)c4ccc(-c5ccccc5)cc4)CC3)nc(NC(=O)C3OC(OC)[C@@H]4OC(C)(C)O[C@H]34)nc2s1 (stereo partly drawn) [Example 31, (7R,8S)-6-Methoxy-2,2-dimethyltetrahydrofuro[3,4-d][1,3]dioxole-4-carboxylic acid{4-[4-(biphenyl-4-carbonyl)piperazin-1-yl]-6-ethylthieno[2,3-d]pyrimidin-2-yl}amide]
- % Inhibition, [^33P]-2MeS-ADP Binding to Recombinant Human P2Y12 Membranes (Assay 3) [1]: 72.4%
- inhibition at 10 µM [1]: 76.7%
- IC50: 0.345 µM and 0.678 µM
- Ki: 0.189 µM and 0.329 µM

Structure (SMILES): CCc1cc2c(N3CCN(C(=O)c4ccc(-c5ccccc5)cc4)CC3)nc(NC(=O)c3ccccn3)nc2s1 [Example 33, {4-[4-(Biphenyl-4-carbonyl)piperazin-1-yl]-6-ethylthieno[2,3-d]pyrimidin-2-yl}picolinamide]
- inhibition at 10 µM [1]: 87.9%
- IC50: 0.0389 µM
- Ki: 0.021 µM

Structure (SMILES): CCc1cc2c(N3CCN(C(=O)c4ccc(-c5ccccc5)cc4)CC3)nc(NC(=O)c3ccncc3)nc2s1 [Example 34, {4-[4-(Biphenyl-4-carbonyl)piperazin-1-yl]-6-ethylthieno[2,3-d]pyrimidin-2-yl}isonicotinamide]
- inhibition at 10 µM [1]: 74.8%
- IC50: 0.582 µM
- Ki: 0.328 µM

Structure (SMILES): CCc1cc2c(N3CCN(C(=O)c4ccc(-c5ccccc5)cc4)CC3)nc(NC(=O)[C@H](COC(C)(C)C)NC(=O)OCc3ccccc3)nc2s1 [Example 35, Benzyl (1-{4-[4-(biphenyl-4-carbonyl)piperazin-1-yl]-6-ethylthieno[2,3-d]pyrimidin-2-ylcarbamoyl)-2-tert-butoxyethyl)carbamate]
- inhibition at 10 µM [1]: 53.9%
- IC50: 2.7 µM
- Ki: 1.31 µM

Structure (SMILES): CCc1cc2c(N3CCN(C(=O)c4ccc(-c5ccccc5)cc4)CC3)nc(NC(=O)CCO)nc2s1 [Example 36, N-{4-[4-(Biphenyl-4-carbonyl)piperazin-1-yl]-6-ethylthieno[2,3-d]pyrimidin-2-yl}-3-hydroxypropionamide]
- inhibition at 10 µM [1]: 94%
- IC50: 0.067 µM
- Ki: 0.037 µM

Structure (SMILES): CCc1cc2c(N3CCN(C(=O)c4ccc(-c5ccccc5)cc4)CC3)nc(NC(=O)CO)nc2s1 [Example 37, N-{4-[4-(Biphenyl-4-carbonyl)piperazin-1-yl]-6-ethylthieno[2,3-d]pyrimidin-2-yl}-b-hydroxyacetamide]
- inhibition at 1 µM: 84.5%
- IC50: 0.0493 µM
- Ki: 0.024 µM

Structure (SMILES): CCc1cc2c(N3CCN(C(=O)c4ccc(-c5ccccc5)cc4)CC3)nc(NC(=O)CCC(=O)O)nc2s1 [Example 38, N-{4-[4-(Biphenyl-4-carbonyl)piperazin-1-yl]-6-ethylthieno[2,3-d]pyrimidin-2-yl}succinamic acid]
- inhibition at 1 µM: 88%
- IC50: 0.013 µM
- Ki: 0.008 µM

Structure (SMILES): CCc1cc2c(N3CCN(C(=O)c4ccc(-c5ccccc5)cc4)CC3)nc(NC(=O)[C@@H]3CCCN3)nc2s1 [Example 39, (S)-Pyrrolidine-2-carboxylic Acid{4-[4-(Biphenyl-4-carbonyl)piperazin-1-yl]-6-ethylthieno[2,3-d]pyrimidin-2-yl}amide]
- inhibition at 10 µM [1]: 81%
- IC50: 0.179 µM
- Ki: 0.087 µM
